According to ChEMBL document CHEMBL1201862, “PubChem BioAssay data set” (2004):
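Briefly, cells in 96-well plates were exposed to five compound concentrations for 48 h, and endpoints were estimated by linear interpolation. GI50 = concentration required for 50% inhibition of growth.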 Active and inactive are the calls of the source. Rule as the data show it: active = GI50 up to about 1.1 µM and inactive = higher.

Columns and labels:
Test in all cases: NCI-60 cell line screen, 48 h
SK-MEL-28 = test system: SK-MEL-28
HL-60 = test system: HL-60
LOX IMVI = test system: LOX IMVI
K562 = test system: K562
SN12C = test system: SN12C
MCF7 = test system: MCF7
MDA-N = test system: MDA-N
BT-549 = test system: BT-549
DU-145 = test system: DU-145
OVCAR-5 = test system: OVCAR-5
RPMI-8226 = test system: RPMI-8226
NCI-H226 = test system: NCI-H226
NCI-H460 = test system: NCI-H460
MDA-MB-231 = test system: MDA-MB-231
CAKI-1 = test system: CAKI-1
SK-MEL-2 = test system: SK-MEL-2
PC-3 = test system: PC-3
OVCAR-8 = test system: OVCAR-8
UACC-62 = test system: UACC-62

Measured: GI50

CCN(CC)C1Oc2cc3c(cc2C(c2cccc(OC)c2O)C1C)OCO3 (centres undefined)
inactive: SK-MEL-28 5.96 µM | HL-60 2.99 µM | LOX IMVI 4.31 µM | K562 3.75 µM | SN12C 4.6 µM | MCF7 9.55 µM | MDA-N 1.7 µM | BT-549 7.18 µM | DU-145 5.35 µM | OVCAR-5 13.8 µM | RPMI-8226 3.24 µM | NCI-H226 3.44 µM | NCI-H460 4.24 µM | MDA-MB-231 10.5 µM | CAKI-1 5.6 µM | SK-MEL-2 4.52 µM | PC-3 3.63 µM | OVCAR-8 13.7 µM | UACC-62 5.24 µM

COc1c(C)c2c(c(=O)c3c(C)cccc3n2C)c2c1c(=O)c1c(C)cccc1n2C
inactive: SK-MEL-28 > 10 µM | HL-60 > 10 µM | LOX IMVI > 10 µM | K562 > 10 µM | SN12C > 10 µM | MCF7 > 10 µM | MDA-N > 10 µM | BT-549 > 10 µM | DU-145 > 10 µM | OVCAR-5 > 10 µM | RPMI-8226 9.27 µM | NCI-H226 > 10 µM | NCI-H460 5.62 µM | MDA-MB-231 > 10 µM | CAKI-1 > 10 µM | SK-MEL-2 > 10 µM | PC-3 > 10 µM | OVCAR-8 9.66 µM | UACC-62 > 10 µM

Cc1cc2c(=O)[nH]nc(N)c2c(N)n1
inactive: SK-MEL-28 > 100 µM | HL-60 > 100 µM | LOX IMVI > 100 µM | K562 > 100 µM | SN12C > 100 µM | MCF7 > 100 µM | MDA-N > 100 µM | BT-549 > 100 µM | DU-145 > 100 µM | OVCAR-5 > 100 µM | RPMI-8226 > 100 µM | NCI-H226 > 100 µM | NCI-H460 > 100 µM | MDA-MB-231 > 100 µM | CAKI-1 > 100 µM | SK-MEL-2 > 100 µM | PC-3 > 100 µM | OVCAR-8 > 100 µM | UACC-62 > 100 µM

Cc1cc(S(=O)(=O)n2ccnc2Oc2cccc(Cl)c2)c(SSc2cc(Cl)c(C)cc2S(=O)(=O)n2ccnc2Oc2cccc(Cl)c2)cc1Cl
inactive: SK-MEL-28 14.1 µM | HL-60 4.18 µM | LOX IMVI 30 µM | K562 9.93 µM | SN12C 8.87 µM | MCF7 3.21 µM | MDA-N 8.38 µM | BT-549 4.3 µM | DU-145 5.32 µM | OVCAR-5 10.4 µM | RPMI-8226 2.67 µM | NCI-H226 6.37 µM | NCI-H460 7.8 µM | MDA-MB-231 12.4 µM | CAKI-1 10.9 µM | SK-MEL-2 7.66 µM | PC-3 6.11 µM | OVCAR-8 6.59 µM | UACC-62 5.7 µM

Cc1ccc(C(=O)O)c(CC2Cc3c(C)cccc3C2=O)c1 (centres undefined)
inactive: SK-MEL-28 > 100 µM | HL-60 > 100 µM | LOX IMVI 90.4 µM | K562 > 100 µM | SN12C > 100 µM | MCF7 > 100 µM | MDA-N > 100 µM | BT-549 > 100 µM | DU-145 > 100 µM | OVCAR-5 > 100 µM | RPMI-8226 > 100 µM | NCI-H226 > 100 µM | NCI-H460 > 100 µM | MDA-MB-231 > 100 µM | CAKI-1 > 100 µM | SK-MEL-2 > 100 µM | PC-3 > 100 µM | OVCAR-8 > 100 µM | UACC-62 > 100 µM

COC(OC)C1(c2ccccc2)Oc2ccccc2C1=O (centres undefined)
inactive: SK-MEL-28 > 100 µM | HL-60 > 100 µM | LOX IMVI > 100 µM | K562 65.2 µM | SN12C > 100 µM | MCF7 > 100 µM | MDA-N > 100 µM | BT-549 85.9 µM | DU-145 > 100 µM | OVCAR-5 > 100 µM | RPMI-8226 > 100 µM | NCI-H226 > 100 µM | NCI-H460 > 100 µM | MDA-MB-231 > 100 µM | CAKI-1 > 100 µM | SK-MEL-2 > 100 µM | PC-3 > 100 µM | OVCAR-8 > 100 µM | UACC-62 > 100 µM
